Measured values taken from patent publication US5643954A, “Method of preventing and alleviating stress in a healthy mammal in need thereof” (priority 1993, dated 1997).
Like-named read-outs stand apart in the source and are kept apart here.

What was measured:
[1] = orientation motive activity of mice, automated registration of movements; type: in vivo, mice (male); details: for Number of movements in 10 min in register: M ± m
Method: Experiments were conducted in vivo on male mice weighing 18-22 g and male rats weighing 200-250 g, as well as in vitro on the isolated organs: a guinea pig's ileum and a rat's seminal effervesces.

[2] = system: electrical-shock-caused paroxysms
[3] = Method: The examination of attention was performed by using Schulte test which provides for a square chart produced before a patient (tested) that is divided into 49 squares containing confusedly arranged red and black numbers (24 and 25, respectively). The numbers are sought in the chart in strict order, say, red ones in increasing order and black ones in decreasing order, and along with this, the time is fixed for execution of the entire assignment, the time of search of each and every figure and the number of mistakes. The test makes it possible to assess attention and reveal the persons having enhanced emotional responses.
To study the state of short-lived memory, use was made of a test based on reproduction of 10 two-digit numbers shown on the screen for 20 sec. […] Sensomotor reactions were evaluated with the aid of a visual-motor reaction (differentiation of optical signals from 20 applications).

[4] = type: in vivo; details: in vivo
hexenal sleep = assay: comparative interaction test with hexenal, rats; type: in vivo; details: M ± m
apomorphine stereotypy = details: M ± m
Corazol twitches = assay: comparative interaction test with Corazol, rats; type: in vivo; details: M ± m
[5] = system: acute stress action (electric painful influence)
Text: The test and control young rats were subjected to a single electric painful influence in a matter of a second ("electric floor" 59 hertz, 35 v). […] Sixty minutes after, the behaviour of animals was investigated in the "open field" test.

hexenal effects = details: M ± m
[6] = system: electric painful irritation; details: 60 min before experiment
[7] = system: chronic electric painful influence; details: for daily 15% ethanol consumption: M ± m
Method: In the test and control groups of animals, a determination was given during 7 days to an individual daily consumption of 15% ethanol in the conditions of free choice between said 15% ethanol and water. Thereafter the young rats were subjected to quintuple electric painful influence, daily for 2 weeks, on the paws for 5 minutes, duration 1 sec.; the grown-up animals--tenfold influence for 10 minutes, duration 1 sec. […] The control group received a corresponding volume of water.

[8] = taken once or regularly (14 days)
[9] = for Addition: after taking
Text: A test permits evaluating the rate of counting-computing operations per unit time (in each and every minute), duration of execution of the task (time spent for adding 184 pairs of numbers), the number of mistakes, the speed of attention switching and the degree of weariness.

[10] = after dose, M ± m
Corazol convulsions = assay: testings with Corazolin (Corazol), mice; type: in vivo; details: for Corazol latent period / Corazol life-time: M ± m
[11] = 40 mg/kg week-long introduction
[12] = 200 mg/kg single administration
[13] = after taking the preparation, M ± m
[14] = 30 min after taking the claimed preparation
[15] = intragastric, 20 min before Corazol, in words

aminoacetic acid [claimed preparation]
Number of movements in 10 min in register ([1]; 2 mg/kg intraperitoneally): 371 ± 56
Number of movements in 10 min in register ([1]; 20 mg/kg intraperitoneally): 365 ± 79
Number of movements in 10 min in register ([1]; 40 mg/kg into stomach): 439 ± 70
Number of movements in 10 min in register ([1]; 40 mg/kg intraperitoneally): 324 ± 56
Number of movements in 10 min in register ([1]; 80 mg/kg intraperitoneally): 398 ± 48
Number of movements in 10 min in register ([1]; 200 mg/kg intraperitoneally): 275 ± 23
motor activity ([1]; in words): reduction of animals' motor activity
Maximal electric shock death of animal ([2]; 2 mg/kg single administration): 70%
Maximal electric shock tonico-extensor phase ([2]; 2 mg/kg single administration): 100%
Maximal electric shock death of animal ([2]; 2 mg/kg week-long introduction): 60%
Maximal electric shock tonico-extensor phase ([2]; 2 mg/kg week-long introduction): 100%
Maximal electric shock death of animal ([2]; 40 mg/kg single administration): 40%
Maximal electric shock tonico-extensor phase ([2]; 40 mg/kg single administration): 100%
Maximal electric shock death of animal [2, 11]: 40%
Maximal electric shock tonico-extensor phase [2, 11]: 100%
Maximal electric shock death of animal ([2]; 80 mg/kg single administration): 40%
Maximal electric shock tonico-extensor phase ([2]; 80 mg/kg single administration): 100%
Maximal electric shock death of animal [2, 12]: 70%
Maximal electric shock tonico-extensor phase [2, 12]: 100%
activity towards electrical-shock-caused paroxysms ([2]; in words): inactive towards electrical-shock- caused paroxysms
cases with increased volume of short-lived memory ([3]; 2 mg/kg one time): 58.9%
cases with subjective and objective improvement of general state ([3]; 2 mg/kg one time): 87.2%
students with reduction of latent period of visual-motor reaction and number of differentiation disruptions ([3]; 2 mg/kg one time): 56.4%
tested whose short-lived memory did not worsen and remained on the initial level ([3]; 2 mg/kg one time): 25.7%
increase of volume of short-lived memory ([3]; 2 mg/kg one time, average): 25%
attention ([3]; 2 mg/kg one time, in words): reducing the attention switching time and the number of mistakes made
Attention switching number of errors [3, 13]: 3.20 ± 0.39
Attention switching time [3, 13]: 95.39 ± 6.11 s
Shortlived memory [3, 13]: 46.92 ± 2.58 nom. units
Visual-motor reaction differentiation disruption [3, 13]: 0.46 ± 0.13 nominal units
Visual-motor reaction latent period [3, 13]: 0.51 ± 0.01 min
sedative and synchronizing effect on EEG [4]: displaying at the same time a sedative and synchronizing effect on EEG
Hexanal sleep duration (hexenal sleep; 2 mg/kg): 36.0 ± 1.8 min
Hexanal sleep duration (hexenal sleep; 40 mg/kg): 32.0 ± 1.9 min
Hexanal sleep duration (hexenal sleep; 200 mg/kg): 28.0 ± 1.9 min
apomorphine duration of stereotypy (apomorphine stereotypy; 2 mg/kg): 20.0 ± 0.9 min
apomorphine latent period (apomorphine stereotypy; 2 mg/kg): 98.0 ± 1.5 s
apomorphine duration of stereotypy (apomorphine stereotypy; 40 mg/kg): 22.0 ± 0.6 min
apomorphine latent period (apomorphine stereotypy; 40 mg/kg): 104.0 ± 0.9 s
apomorphine duration of stereotypy (apomorphine stereotypy; 200 mg/kg): 20.0 ± 0.5 min
apomorphine latent period (apomorphine stereotypy; 200 mg/kg): 95.5 ± 0.8 s
Corazol twitches, latent period (Corazol twitches; 20 mg/kg): 41.0 ± 0.3 min
Corazol twitches, latent period (Corazol twitches; 80 mg/kg): 45.0 ± 0.9 min
Corazol twitches, latent period (Corazol twitches; 200 mg/kg): 42.5 ± 0.7 min
Intersection of a floor's center ([5]; 2 mg/kg on tongue root 20 min before electric painful influence): 0
Defecation ([5]; 2 mg/kg on tongue root 20 min before electric painful influence, M ± m): 0.4 ± 0.28
stress-protective effect ([5]; preliminarily administered): displays a stress-protective effect and considerably reduces on-stress-dependent excitement manifestations
hexenal duration of sleep (hexenal effects; 2 mg/kg): 36.0 ± 1.8 min
hexenal latent period (hexenal effects; 2 mg/kg): 4.5 ± 0.3 min
hexenal duration of sleep (hexenal effects; 40 mg/kg): 32.0 ± 1.9 min
hexenal latent period (hexenal effects; 40 mg/kg): 4.5 ± 0.6 min
hexenal duration of sleep (hexenal effects; 200 mg/kg): 28.0 ± 1.9 min
hexenal latent period (hexenal effects; 200 mg/kg): 3.8 ± 0.7 min
emotional reaction (squeak) [6]: did not exert influence on an emotional reaction
increase of aggression reaction threshold [6]: 5±0.8 v
number of fights [6]: reduced the number of fights
strengthening of motor component (jumps) [6]: 1-1.5 points
daily 15% ethanol consumption ([7]; adult animals, 2nd week, 1 to 2 mg/kg tongue root): 3.4 ± 0.13 mL
daily 15% ethanol consumption ([7]; adult animals, 4th week (after cancellation)): 2.3 ± 0.3 mL
daily 15% ethanol consumption ([7]; adult animals, 3d week, 1 to 2 mg/kg tongue root): 2.5 ± 0.15 mL
daily 15% ethanol consumption ([7]; adult animals, Test, 1st week (before stress and administration)): 1.8 ± 0.08 mL
aggressiveness and exciteability ([7]; during the entire experiment, vs control groups): considerable reduction of aggressiveness and exciteability
alcohol motivation ([7]; rat, in vivo): diminishes the alcohol motivation of the animals
daily 15% ethanol consumption ([7]; young rats, 2nd week, 1 to 2 mg/kg tongue root): 4.4 ± 0.3 mL
daily 15% ethanol consumption ([7]; young rats, 4th week (after cancellation)): 1.6 ± 0.18 mL
daily 15% ethanol consumption ([7]; young rats, 3d week, 1 to 2 mg/kg tongue root): 2.0 ± 0.2 mL
daily 15% ethanol consumption ([7]; young rats, Test, 1st week (before stress and administration)): 2.7 ± 0.2 mL
weariness, irritation and internal unrest [8]: weariness, irritation and internal unrest significantly abate
cases with reduced time for adding up numbers ([9]; 30 min after single dose): 79.5%
number of errors in counting ([9]; 30 min after single dose): diminishes twice
reduction of time for adding up numbers ([9]; 30 min after single dose): 1.5 to 2 min
Number of mistakes [9, 14]: 1
Those making mistakes [9, 14]: 40%
Speed of addition ([9]; 30 min after taking the claimed preparation, M ± m): 52.0 ± 1.9 pair/min
Addition ([9]; alcoholic abstinence syndrome (2nd day), M ± m): 32.0 ± 1.6 pair/min
Addition ([9]; remission period, M ± m): 51.0 ± 1.8 pair/min
AMo/Δx ([10]; after testing): 94.8 ± 4.1
Amo ([10]; after testing): 36.4 ± 2.2%
Mo ([10]; after testing): 0.74 ± 0.03 s
Δx ([10]; after testing): 0.38 ± 0.01 s
AMo/Δx ([10]; prior to tests): 83.8 ± 4.0
Amo ([10]; prior to tests): 32.0 ± 2.0%
Mo ([10]; prior to tests): 0.75 ± 0.03 s
Δx ([10]; prior to tests): 0.39 ± 0.01 s
Corazol tonico-extensor phase (Corazol convulsions; 2 mg/kg intragastric): 100 min
Corazol latent period (Corazol convulsions; 2 mg/kg intragastric): 39.0 ± 0.6 s
Corazol life-time (Corazol convulsions; 2 mg/kg intragastric): 2.5 ± 0.7 min
Corazol tonico-extensor phase (Corazol convulsions; 20 mg/kg intragastric): 80 min
Corazol latent period (Corazol convulsions; 20 mg/kg intragastric): 41.0 ± 0.3 s
Corazol life-time (Corazol convulsions; 20 mg/kg intragastric): 2.8 ± 0.8 min
Corazol tonico-extensor phase (Corazol convulsions; 40 mg/kg intragastric): 70 min
Corazol latent period (Corazol convulsions; 40 mg/kg intragastric): 49.0 ± 0.7 s
Corazol life-time (Corazol convulsions; 40 mg/kg intragastric): 2.4 ± 0.7 min
Corazol tonico-extensor phase (Corazol convulsions; 80 mg/kg intragastric): 70 min
Corazol latent period (Corazol convulsions; 80 mg/kg intragastric): 45.0 ± 0.9 s
Corazol life-time (Corazol convulsions; 80 mg/kg intragastric): 3.1 ± 0.9 min
Corazol tonico-extensor phase (Corazol convulsions; 200 mg/kg intragastric): 70 min
Corazol latent period (Corazol convulsions; 200 mg/kg intragastric): 42.5 ± 0.7 s
Corazol life-time (Corazol convulsions; 200 mg/kg intragastric): 2.4 ± 0.5 min
latent period of Corazol convulsions (Corazol convulsions; [15]): increased latent period of Corazol convulsions
tonico-extensor component of a twitch paroxysm (Corazol convulsions; [15]): some depression of the tonico-extensor component of a twitch paroxysm
